Experimental data: ChEMBL document CHEMBL1909046, “DrugMatrix in vitro pharmacology data”

Columns and labels:
[1] = biological target: Matrix metalloproteinase-9 (Homo sapiens, UniProt P14780); assay type: cell-based;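 note: inhibition of isolated MMP-9 enzyme activity toward a synthetic peptide substrate, from the DrugMatrix protease screening panel; in other assays of this panel Not Active means under 50% inhibition at 10 µM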
[2] = biological target: T1, Cathepsin G (Homo sapiens, UniProt P08311); experiment: biochemical; assay type: tissue-based, Neutrophil; settings: neutrophil;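 note: inhibition of Cathepsin G enzyme activity, tested on an AMC-conjugated peptide substrate; in other assays of this panel Not Active means under 50% inhibition at 10 µM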
T1 sequence (P08311 whole entry): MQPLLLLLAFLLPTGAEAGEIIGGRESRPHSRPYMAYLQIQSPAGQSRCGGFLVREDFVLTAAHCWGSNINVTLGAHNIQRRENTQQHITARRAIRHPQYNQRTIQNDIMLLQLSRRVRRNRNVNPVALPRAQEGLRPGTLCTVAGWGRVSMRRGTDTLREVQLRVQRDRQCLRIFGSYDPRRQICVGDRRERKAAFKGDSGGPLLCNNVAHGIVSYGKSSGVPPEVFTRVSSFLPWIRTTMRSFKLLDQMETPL

[3] = biological target: T2, 5-hydroxytryptamine receptor 1A (Rattus norvegicus, UniProt P19327); assay type: cell membranes, CHO-K1, Membrane; note: in other assays of this panel Not Active means under 50% inhibition at 10 µM
T2 sequence (P19327 whole entry): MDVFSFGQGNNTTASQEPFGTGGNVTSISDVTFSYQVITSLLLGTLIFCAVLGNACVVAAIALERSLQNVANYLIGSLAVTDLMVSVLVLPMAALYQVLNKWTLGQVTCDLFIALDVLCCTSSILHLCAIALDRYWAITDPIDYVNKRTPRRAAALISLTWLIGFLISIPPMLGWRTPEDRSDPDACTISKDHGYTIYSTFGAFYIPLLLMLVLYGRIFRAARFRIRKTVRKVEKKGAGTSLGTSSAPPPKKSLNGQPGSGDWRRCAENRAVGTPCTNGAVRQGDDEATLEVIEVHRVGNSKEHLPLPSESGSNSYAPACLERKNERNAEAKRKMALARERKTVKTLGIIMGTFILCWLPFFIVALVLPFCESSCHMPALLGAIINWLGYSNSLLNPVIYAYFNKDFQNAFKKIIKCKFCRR

[4] = biological target: Receptor tyrosine-protein kinase erbB-2 (Homo sapiens, UniProt P04626); assay type: cell-based; settings: insect cells;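 note: inhibition of HER2 kinase enzyme activity, measured with Poly(Glu:Tyr) as the phosphorylation substrate; in other assays of this panel Not Active means under 50% inhibition at 10 µM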
[5] = biological target: Insulin receptor (Rattus norvegicus, UniProt P15127); assay type: cell membranes, Wistar, Liver, Membrane; note: in other assays of this panel Not Active means under 50% inhibition at 10 µM
Insulin receptor, sequence (P15127 27-759 limits assumed): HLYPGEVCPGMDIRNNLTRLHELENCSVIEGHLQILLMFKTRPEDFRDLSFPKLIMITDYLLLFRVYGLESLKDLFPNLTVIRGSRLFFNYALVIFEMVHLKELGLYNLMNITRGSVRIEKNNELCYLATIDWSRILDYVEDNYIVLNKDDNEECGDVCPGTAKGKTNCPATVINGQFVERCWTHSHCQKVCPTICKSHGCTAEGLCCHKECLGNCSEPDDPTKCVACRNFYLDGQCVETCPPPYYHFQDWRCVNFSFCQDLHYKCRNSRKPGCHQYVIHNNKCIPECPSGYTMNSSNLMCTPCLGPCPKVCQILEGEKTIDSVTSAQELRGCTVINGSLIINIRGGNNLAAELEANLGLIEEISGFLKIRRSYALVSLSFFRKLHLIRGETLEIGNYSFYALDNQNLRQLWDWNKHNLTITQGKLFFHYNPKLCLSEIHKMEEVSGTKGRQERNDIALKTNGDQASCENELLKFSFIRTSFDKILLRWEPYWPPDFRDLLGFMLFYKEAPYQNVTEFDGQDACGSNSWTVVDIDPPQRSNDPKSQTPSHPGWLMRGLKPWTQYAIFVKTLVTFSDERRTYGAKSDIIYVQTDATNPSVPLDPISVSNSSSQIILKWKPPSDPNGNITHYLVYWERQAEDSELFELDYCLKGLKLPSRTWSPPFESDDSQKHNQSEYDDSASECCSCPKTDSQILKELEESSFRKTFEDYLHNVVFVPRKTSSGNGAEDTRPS
Insulin receptor, sequence (P15127 764-1383 limits assumed): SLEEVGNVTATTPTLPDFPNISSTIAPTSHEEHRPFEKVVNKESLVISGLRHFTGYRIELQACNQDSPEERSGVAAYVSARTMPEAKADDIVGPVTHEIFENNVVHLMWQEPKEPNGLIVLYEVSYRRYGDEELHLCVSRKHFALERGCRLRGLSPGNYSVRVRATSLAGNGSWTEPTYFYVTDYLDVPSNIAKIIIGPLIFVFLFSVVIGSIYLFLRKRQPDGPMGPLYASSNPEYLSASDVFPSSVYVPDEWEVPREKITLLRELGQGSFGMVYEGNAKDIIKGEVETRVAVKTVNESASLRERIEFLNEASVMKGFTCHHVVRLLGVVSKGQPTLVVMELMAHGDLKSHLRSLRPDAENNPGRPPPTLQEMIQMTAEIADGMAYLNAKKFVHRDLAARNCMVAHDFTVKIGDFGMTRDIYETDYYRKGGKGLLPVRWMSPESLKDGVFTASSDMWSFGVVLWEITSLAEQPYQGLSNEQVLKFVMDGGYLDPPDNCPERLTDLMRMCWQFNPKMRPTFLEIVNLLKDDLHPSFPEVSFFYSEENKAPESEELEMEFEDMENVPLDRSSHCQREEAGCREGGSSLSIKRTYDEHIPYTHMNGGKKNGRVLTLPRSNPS

[6] = biological target: T3, Neuropeptide Y receptor type 1 (Homo sapiens, UniProt P25929); assay type: cell membranes, Membrane; settings: sk-n-mc; note: in other assays of this panel Not Active means under 50% inhibition at 10 µM
T3 sequence (P25929 whole entry): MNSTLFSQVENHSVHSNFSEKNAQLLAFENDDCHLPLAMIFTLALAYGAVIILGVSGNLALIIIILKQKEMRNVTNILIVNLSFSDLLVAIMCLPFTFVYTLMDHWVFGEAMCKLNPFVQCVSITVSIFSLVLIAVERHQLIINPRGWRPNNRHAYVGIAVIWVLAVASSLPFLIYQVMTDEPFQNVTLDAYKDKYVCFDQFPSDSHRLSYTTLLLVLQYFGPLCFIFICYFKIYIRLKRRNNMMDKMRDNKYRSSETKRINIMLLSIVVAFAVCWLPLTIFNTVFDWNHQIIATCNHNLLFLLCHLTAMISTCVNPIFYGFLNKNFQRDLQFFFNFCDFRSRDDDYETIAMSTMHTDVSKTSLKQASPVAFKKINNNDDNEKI

[7] = biological target: T4, Cytochrome P450 1A2 (Homo sapiens, UniProt P05177); settings: bti-tn-5b1-4; note: in other assays of this panel Not Active means under 50% inhibition at 10 µM
T4 sequence (P05177 whole entry): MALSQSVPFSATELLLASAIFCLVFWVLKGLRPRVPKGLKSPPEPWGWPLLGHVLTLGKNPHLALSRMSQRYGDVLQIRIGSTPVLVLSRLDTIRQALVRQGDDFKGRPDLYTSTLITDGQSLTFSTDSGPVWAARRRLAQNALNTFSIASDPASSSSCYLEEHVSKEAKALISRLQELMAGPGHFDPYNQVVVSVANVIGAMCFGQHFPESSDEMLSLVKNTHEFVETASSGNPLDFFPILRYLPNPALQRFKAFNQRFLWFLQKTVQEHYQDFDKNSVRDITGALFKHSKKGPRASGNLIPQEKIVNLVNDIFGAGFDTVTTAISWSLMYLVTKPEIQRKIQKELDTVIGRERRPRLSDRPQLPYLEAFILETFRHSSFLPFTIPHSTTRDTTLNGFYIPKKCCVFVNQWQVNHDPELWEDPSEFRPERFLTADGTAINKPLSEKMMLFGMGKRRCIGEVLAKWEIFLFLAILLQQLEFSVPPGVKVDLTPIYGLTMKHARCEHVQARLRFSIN

[8] = biological target: Beta-1 adrenergic receptor (Homo sapiens, UniProt P08588); experiment: DRUGMATRIX: Adrenergic beta1 radioligand binding (ligand: [125I] Cyanopindolol); assay type: cell membranes, CHO-K1, Membrane; settings: cho-k1; Not Active = under 50% inhibition at 10 µM
Beta-1 adrenergic receptor, sequence (P08588 whole entry): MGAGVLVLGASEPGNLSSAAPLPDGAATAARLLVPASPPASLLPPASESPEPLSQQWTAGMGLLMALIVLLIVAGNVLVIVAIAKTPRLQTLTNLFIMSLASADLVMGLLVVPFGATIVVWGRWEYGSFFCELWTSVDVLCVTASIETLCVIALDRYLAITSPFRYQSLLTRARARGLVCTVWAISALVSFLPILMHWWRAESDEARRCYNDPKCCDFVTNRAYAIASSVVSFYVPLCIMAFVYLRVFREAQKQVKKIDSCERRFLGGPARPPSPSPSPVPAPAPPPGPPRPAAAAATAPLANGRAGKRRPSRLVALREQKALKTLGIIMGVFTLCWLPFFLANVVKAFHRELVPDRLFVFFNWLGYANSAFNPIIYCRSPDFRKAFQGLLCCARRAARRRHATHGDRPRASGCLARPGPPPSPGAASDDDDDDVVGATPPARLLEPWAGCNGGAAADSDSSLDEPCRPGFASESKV

[9] = biological target: Tyrosine-protein kinase Fyn (Homo sapiens, UniProt P06241); experiment: biochemical; assay type: cell-based, Insect cells; settings: insect cells
Tyrosine-protein kinase Fyn, sequence (P06241 whole entry): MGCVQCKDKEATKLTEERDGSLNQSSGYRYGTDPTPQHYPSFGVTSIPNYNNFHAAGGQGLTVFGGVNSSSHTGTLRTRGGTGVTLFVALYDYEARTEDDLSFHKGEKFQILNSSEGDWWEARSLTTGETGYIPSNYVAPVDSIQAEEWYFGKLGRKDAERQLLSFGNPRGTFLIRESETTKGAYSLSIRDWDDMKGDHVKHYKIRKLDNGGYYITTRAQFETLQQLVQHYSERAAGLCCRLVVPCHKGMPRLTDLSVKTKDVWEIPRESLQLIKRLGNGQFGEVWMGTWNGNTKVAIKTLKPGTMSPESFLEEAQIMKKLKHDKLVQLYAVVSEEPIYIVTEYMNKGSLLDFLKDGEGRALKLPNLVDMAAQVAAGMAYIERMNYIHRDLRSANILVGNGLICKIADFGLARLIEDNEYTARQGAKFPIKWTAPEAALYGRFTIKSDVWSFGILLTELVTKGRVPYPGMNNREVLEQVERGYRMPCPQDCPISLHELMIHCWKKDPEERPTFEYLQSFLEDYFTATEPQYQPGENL

Matrix metalloproteinase-9, sequence (P14780 whole entry): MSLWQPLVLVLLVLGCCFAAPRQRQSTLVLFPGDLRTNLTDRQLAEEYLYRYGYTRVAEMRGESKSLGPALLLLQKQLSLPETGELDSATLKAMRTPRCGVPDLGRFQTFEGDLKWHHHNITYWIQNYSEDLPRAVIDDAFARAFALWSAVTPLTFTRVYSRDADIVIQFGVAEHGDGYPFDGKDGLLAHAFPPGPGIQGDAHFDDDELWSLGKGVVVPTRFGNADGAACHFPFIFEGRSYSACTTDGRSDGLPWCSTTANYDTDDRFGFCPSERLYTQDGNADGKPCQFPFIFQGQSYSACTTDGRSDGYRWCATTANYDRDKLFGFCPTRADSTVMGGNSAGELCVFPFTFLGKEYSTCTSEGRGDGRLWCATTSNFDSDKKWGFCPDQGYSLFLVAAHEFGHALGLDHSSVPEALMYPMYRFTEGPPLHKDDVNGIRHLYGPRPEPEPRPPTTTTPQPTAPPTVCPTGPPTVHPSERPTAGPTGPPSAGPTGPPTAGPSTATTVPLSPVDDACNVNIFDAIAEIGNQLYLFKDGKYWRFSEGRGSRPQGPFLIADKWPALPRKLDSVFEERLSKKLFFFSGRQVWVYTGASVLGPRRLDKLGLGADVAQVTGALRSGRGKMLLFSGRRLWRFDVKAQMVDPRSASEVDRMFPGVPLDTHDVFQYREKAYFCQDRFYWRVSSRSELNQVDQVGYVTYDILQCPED

| Compound | IC50 [1] | IC50 [2] | IC50 ([3]; cho-k1) | IC50 [4] | IC50 [5] | IC50 [6] | IC50 [7] | Ki [7] | IC50 [8] | IC50 [9] | Ki [1] | Ki [2] | Ki ([3]; cho-k1) | Ki [4] | Ki [5] | Ki [6] | Ki [8] | Ki [9] | IC50 ([3]; read-out: IC50) [nM] | Ki ([3]; read-out: Ki) [nM] |
| --- | --- | --- | --- | --- | --- | --- | --- | --- | --- | --- | --- | --- | --- | --- | --- | --- | --- | --- | --- | --- |
| CCN1CCN(C(=O)N[C@@H](C(=O)N[C@@H]2C(=O)N3[C@@H]2SC(C)(C)[C@@H]3C(=O)O)c2ccccc2)C(=O)C1=O [PIPERACILLIN] | Not Active | Not Active | Not Active | Not Active | Not Active | Not Active | Not Active | Not Active | Not Active | Not Active |  |  |  |  |  |  |  |  |  |  |
| O=C(O)c1ccccc1 [BENZOIC ACID] | Not Active | Not Active | Not Active | Not Active | Not Active | Not Active | Not Active | Not Active | Not Active | Not Active |  |  |  |  |  |  |  |  |  |  |
| CC[C@H]1OC(=O)[C@H](C)[C@@H](O[C@H]2C[C@@](C)(OC)[C@@H](O)[C@H](C)O2)[C@H](C)[C@@H](O[C@@H]2O[C@H](C)C[C@H](N(C)C)[C@H]2O)[C@](C)(O)C[C@@H](C)C(=O)[C@H](C)[C@@H](O)[C@]1(C)O [ERYTHROMYCIN] | Not Active | Not Active | Not Active | Not Active | Not Active | Not Active | Not Active | Not Active | Not Active | Not Active |  |  |  |  |  |  |  |  |  |  |
| Cl.NC[C@H]1CC[C@H](C(=O)Oc2ccc(CCC(=O)O)cc2)CC1 [CETRAXATE HYDROCHLORIDE] | Not Active | Not Active | Not Active | Not Active | Not Active | Not Active | Not Active | Not Active | Not Active | Not Active |  |  |  |  |  |  |  |  |  |  |
| C[C@H](C(=O)O)c1ccc2oc(-c3ccc(F)cc3)nc2c1 [FLUNOXAPROFEN] | Not Active | Not Active | Not Active | Not Active | Not Active | Not Active | Not Active | Not Active | Not Active | Not Active |  |  |  |  |  |  |  |  |  |  |
| C[N+](C)(C)CCOC(N)=O.[Cl-] [CARBACHOL] | Not Active | Not Active | Not Active | Not Active | Not Active | Not Active | Not Active | Not Active | Not Active | Not Active |  |  |  |  |  |  |  |  |  |  |
| O=C(O)CCc1nc(-c2ccccc2)c(-c2ccccc2)o1 [OXAPROZIN] | Not Active | Not Active | Not Active | Not Active | Not Active | Not Active | Not Active | Not Active | Not Active | Not Active |  |  |  |  |  |  |  |  |  |  |
| CC(=O)[C@]1(O)Cc2c(O)c3c(c(O)c2[C@@H](O[C@H]2C[C@H](N)[C@H](O)[C@H](C)O2)C1)C(=O)c1ccccc1C3=O [IDARUBICIN] | Not Active | Not Active | Not Active | Not Active | Not Active | Not Active | Not Active | Not Active | Not Active | Not Active |  |  |  |  |  |  |  |  |  |  |
| O=C1CN(/N=C/c2ccc([N+](=O)[O-])o2)C(=O)N1 [NITROFURANTOIN] | Not Active | Not Active | Not Active | Not Active | Not Active | Not Active | Not Active | Not Active | Not Active | Not Active |  |  |  |  |  |  |  |  |  |  |
| CARBOXYMETHYLCELLULOSE | Not Active | Not Active | Not Active | Not Active | Not Active | Not Active | Not Active | Not Active | Not Active | Not Active | Not Active | Not Active | Not Active | Not Active | Not Active | Not Active | Not Active | Not Active |  |  |
| c1ccc2sc(SSc3nc4ccccc4s3)nc2c1 [BENZOTHIAZYL DISULFIDE] | Not Active | Not Active |  | Not Active | Not Active | Not Active | Not Active | Not Active | Not Active | Not Active |  |  |  |  |  |  |  |  | 747 | 427 |
| CC12CCC(CC1)C(C)(C)O2 [EUCALYPTOL] | Not Active | Not Active | Not Active | Not Active | Not Active | Not Active | Not Active | Not Active | Not Active | Not Active |  |  |  |  |  |  |  |  |  |  |
| CCN1C[C@]2(COC)[C@H](O)C[C@H](OC)[C@@]34[C@@H]5C[C@@]6(O)[C@H](OC(=O)c7ccccc7)[C@@H]5[C@@](OC(C)=O)([C@@H]([C@H](OC)[C@H]23)[C@@H]14)[C@@H](O)[C@@H]6OC [ACONITINE] | Not Active | Not Active | Not Active | Not Active | Not Active | Not Active | Not Active | Not Active | Not Active | Not Active |  |  |  |  |  |  |  |  |  |  |
| C=C(Cl)Cl [1,1-DICHLOROETHENE] | Not Active | Not Active | Not Active | Not Active | Not Active | Not Active | Not Active | Not Active | Not Active | Not Active |  |  |  |  |  |  |  |  |  |  |
| Nc1ccc(Cc2ccc(N)cc2)cc1 | Not Active | Not Active | Not Active | Not Active | Not Active | Not Active | Not Active | Not Active | Not Active | Not Active |  |  |  |  |  |  |  |  |  |  |
| Nc1nc(N)c2nc(CNc3ccc(C(=O)N[C@@H](CCC(=O)O)C(=O)O)cc3)cnc2n1 [AMINOPTERIN] | Not Active | Not Active | Not Active | Not Active | Not Active | Not Active | Not Active | Not Active | Not Active | Not Active |  |  |  |  |  |  |  |  |  |  |
| COPPER(II) OXIDE | Not Active | Not Active | Not Active | Not Active | Not Active | Not Active | Not Active | Not Active | Not Active | Not Active | Not Active | Not Active | Not Active | Not Active | Not Active | Not Active | Not Active | Not Active |  |  |
| CN(CCOc1ccc(C[C@H](Nc2ccccc2C(=O)c2ccccc2)C(=O)O)cc1)c1ccccn1 | Not Active | Not Active | Not Active | Not Active | Not Active | Not Active | Not Active | Not Active | Not Active | Not Active |  |  |  |  |  |  |  |  |  |  |
| COc1cc([C@@H]2c3cc4c(cc3[C@H](O)[C@H]3COC(=O)[C@H]23)OCO4)cc(OC)c1OC [PODOFILOX] | Not Active | Not Active | Not Active | Not Active | Not Active | Not Active | Not Active | Not Active | Not Active | Not Active |  |  |  |  |  |  |  |  |  |  |
